Data published in ChEMBL document CHEMBL5321262, “Antiviral Activity of Cannabidiolic Acid and Its Methyl Ester against SARS-CoV-2” (J Nat Prod, 2023).
The source made the active and inactive calls. No cut-off for these calls is given here.

Experiments:
SARS-CoV-2 [1] = assay: Antiviral activity against SARS-CoV-2 variant Omicron BA.5 infected in African green monkey Vero E6 cells assessed as reduction in virus titers of progeny virus in supernatant measured after 72 hrs by CPE assay; type: functional, organism-based; settings: Severe acute respiratory syndrome coronavirus 2, Omicron BA.5, Vero C1008, 72 h
SARS-CoV-2 [2] = assay: Antiviral activity against SARS-CoV-2 variant Omicron BA.4 infected in African green monkey Vero E6 cells assessed as reduction in virus titers of progeny virus in supernatant measured after 72 hrs by CPE assay; type: functional, organism-based; settings: Severe acute respiratory syndrome coronavirus 2, Omicron BA.4, Vero C1008, 72 h
SARS-CoV-2 [3] = assay: Antiviral activity against SARS-CoV-2 variant Omicron BA.3 infected in African green monkey Vero E6 cells assessed as reduction in virus titers of progeny virus in supernatant measured after 72 hrs by CPE assay; type: functional, organism-based; settings: Severe acute respiratory syndrome coronavirus 2, Omicron BA.3, Vero C1008, 72 h
SARS-CoV-2 [4] = assay: Antiviral activity against SARS-CoV-2 variant Omicron BA.2 infected in African green monkey Vero E6 cells assessed as reduction in virus titers of progeny virus in supernatant measured after 72 hrs by CPE assay; type: functional, organism-based; settings: Severe acute respiratory syndrome coronavirus 2, Omicron BA.2, Vero C1008, 72 h
SARS-CoV-2 [5] = assay: Antiviral activity against SARS-CoV-2 variant Omicron BA.1 infected in African green monkey Vero E6 cells assessed as reduction in virus titers of progeny virus in supernatant measured after 72 hrs by CPE assay; type: functional, organism-based; settings: Severe acute respiratory syndrome coronavirus 2, Omicron BA.1, Vero C1008, 72 h
SARS-CoV-2 [6] = assay: Antiviral activity against SARS-CoV-2 variant Delta infected in African green monkey Vero E6 cells assessed as reduction in virus titers of progeny virus in supernatant measured after 72 hrs by CPE assay; type: functional, organism-based; settings: Severe acute respiratory syndrome coronavirus 2, Delta, Vero C1008, 72 h
SARS-CoV-2 [7] = assay: Antiviral activity against SARS-CoV-2 variant Omicron BA.1 infected in African green monkey Vero E6 cells assessed as reduction in viral replication at 37.5 uM measured at 72 hrs post-infection by qRT-PCR analysis; type: functional, organism-based; settings: Severe acute respiratory syndrome coronavirus 2
SARS-CoV-2 [8] = assay: Antiviral activity against SARS-CoV-2 variant Omicron BA.2 infected in African green monkey Vero E6 cells assessed as reduction in viral replication at 37.5 uM measured at 72 hrs post-infection by qRT-PCR analysis; type: functional, organism-based; settings: Severe acute respiratory syndrome coronavirus 2
SARS-CoV-2 [9] = assay: Antiviral activity against SARS-CoV-2 variant Omicron BA.3 infected in African green monkey Vero E6 cells assessed as reduction in viral replication at 37.5 uM measured at 72 hrs post-infection by qRT-PCR analysis; type: functional, organism-based; settings: Severe acute respiratory syndrome coronavirus 2
SARS-CoV-2 [10] = assay: Antiviral activity against SARS-CoV-2 variant Omicron BA.4 infected in African green monkey Vero E6 cells assessed as reduction in viral replication at 37.5 uM measured at 72 hrs post-infection by qRT-PCR analysis; type: functional, organism-based; settings: Severe acute respiratory syndrome coronavirus 2
SARS-CoV-2 [11] = assay: Antiviral activity against SARS-CoV-2 variant Omicron BA.5 infected in African green monkey Vero E6 cells assessed as reduction in viral replication at 37.5 uM measured at 72 hrs post-infection by qRT-PCR analysis; type: functional, organism-based; settings: Severe acute respiratory syndrome coronavirus 2
SARS-CoV-2 [12] = assay: Antiviral activity against SARS-CoV-2 variant Delta infected in African green monkey Vero E6 cells assessed as reduction in viral replication at 37.5 uM measured at 72 hrs post-infection by qRT-PCR analysis; type: functional, organism-based; settings: Severe acute respiratory syndrome coronavirus 2
SARS-CoV-2 [13] = assay: Antiviral activity against SARS-CoV-2 variant Delta infected in African green monkey Vero E6 cells assessed as reduction in virus-induced cytopathic effect at 37.5 uM preincubated with virus for 1 hr followed by infection with cells and measured after 72 hrs by microscopic analysis; type: functional, organism-based; settings: Severe acute respiratory syndrome coronavirus 2, time 73.0 hrs
SARS-CoV-2 [14] = assay: Antiviral activity against SARS-CoV-2 variant Omicron BA.1 infected in African green monkey Vero E6 cells assessed as reduction in virus-induced cytopathic effect at 37.5 uM preincubated with virus for 1 hr followed by infection with cells and measured after 72 hrs by microscopic analysis; type: functional, organism-based; settings: Severe acute respiratory syndrome coronavirus 2, time 73.0 hrs
SARS-CoV-2 [15] = assay: Antiviral activity against SARS-CoV-2 variant Omicron BA.2 infected in African green monkey Vero E6 cells assessed as reduction in virus-induced cytopathic effect at 37.5 uM preincubated with virus for 1 hr followed by infection with cells and measured after 72 hrs by microscopic analysis; type: functional, organism-based; settings: Severe acute respiratory syndrome coronavirus 2, time 73.0 hrs
SARS-CoV-2 [16] = assay: Antiviral activity against SARS-CoV-2 variant Omicron BA.3 infected African green monkey Vero E6 cells assessed as reduction in virus-induced cytopathic effect at 37.5 uM preincubated with virus for 1 hr followed by infection with cells and measured after 72 hrs by microscopic analysis; type: functional, organism-based; settings: Severe acute respiratory syndrome coronavirus 2, time 73.0 hrs
SARS-CoV-2 [17] = assay: Antiviral activity against SARS-CoV-2 variant Omicron BA.4 infected African green monkey Vero E6 cells assessed as reduction in virus-induced cytopathic effect at 37.5 uM preincubated with virus for 1 hr followed by infection with cells and measured after 72 hrs by microscopic analysis; type: functional, organism-based; settings: Severe acute respiratory syndrome coronavirus 2, time 73.0 hrs
SARS-CoV-2 [18] = assay: Antiviral activity against SARS-CoV-2 variant Omicron BA.5 infected African green monkey Vero E6 cells assessed as reduction in virus-induced cytopathic effect at 37.5 uM preincubated with virus for 1 hr followed by infection with cells and measured after 72 hrs by microscopic analysis; type: functional, organism-based; settings: Severe acute respiratory syndrome coronavirus 2, time 73.0 hrs
SARS-CoV-2 [19] = assay: Antiviral activity against SARS-CoV-2 variant Delta infected in African green monkey Vero E6 cells assessed as inhibition of virus titers of progeny virus in supernatant at 37.5 uM measured after 72 hrs by CPE assay relative to control; type: functional; settings: Severe acute respiratory syndrome coronavirus 2, Delta, Vero C1008
SARS-CoV-2 [20] = assay: Antiviral activity against SARS-CoV-2 variant Omicron BA.1 infected in African green monkey Vero E6 cells assessed as inhibition of virus titers of progeny virus in supernatant at 37.5 uM measured after 72 hrs by CPE assay relative to control; type: functional; settings: Severe acute respiratory syndrome coronavirus 2, Omicron BA.1, Vero C1008
SARS-CoV-2 [21] = assay: Antiviral activity against SARS-CoV-2 variant Omicron BA.2 infected in African green monkey Vero E6 cells assessed as inhibition of virus titers of progeny virus in supernatant at 37.5 uM measured after 72 hrs by CPE assay relative to control; type: functional; settings: Severe acute respiratory syndrome coronavirus 2, Omicron BA.2, Vero C1008
SARS-CoV-2 [22] = assay: Antiviral activity against SARS-CoV-2 variant Omicron BA.3 infected in African green monkey Vero E6 cells assessed as inhibition of virus titers of progeny virus in supernatant at 37.5 uM measured after 72 hrs by CPE assay relative to control; type: functional; settings: Severe acute respiratory syndrome coronavirus 2, Omicron BA.3, Vero C1008
SARS-CoV-2 [23] = assay: Antiviral activity against SARS-CoV-2 variant Omicron BA.4 infected in African green monkey Vero E6 cells assessed as inhibition of virus titers of progeny virus in supernatant at 37.5 uM measured after 72 hrs by CPE assay relative to control; type: functional; settings: Severe acute respiratory syndrome coronavirus 2, Omicron BA.4, Vero C1008
SARS-CoV-2 [24] = assay: Antiviral activity against SARS-CoV-2 variant Omicron BA.5 infected in African green monkey Vero E6 cells assessed as inhibition of virus titers of progeny virus in supernatant at 37.5 uM measured after 72 hrs by CPE assay relative to control; type: functional; settings: Severe acute respiratory syndrome coronavirus 2, Omicron BA.5, Vero C1008

C=C(C)[C@@H]1CCC(C)=C[C@H]1c1c(O)cc(CCCCC)c(C(=O)OC)c1O showed an IC50 (SARS-CoV-2 [1]) of 18.6 µM, an IC50 (SARS-CoV-2 [2]) of 19 µM and an IC50 (SARS-CoV-2 [3]) of 18.6 µM. For the same molecule, the IC50 (SARS-CoV-2 [4]) was 16.6 µM, the IC50 (SARS-CoV-2 [5]) was 15.5 µM and the IC50 (SARS-CoV-2 [6]) was 15.9 µM. The Activity (SARS-CoV-2 [7]) was “Active”, the Activity (SARS-CoV-2 [8]) was “Active” and the Activity (SARS-CoV-2 [9]) was “Active”. The Activity (SARS-CoV-2 [10]) was “Active”, the Activity (SARS-CoV-2 [11]) was “Active” and the Activity (SARS-CoV-2 [12]) was “Active”. The Activity (SARS-CoV-2 [13]) was “Active”, the Activity (SARS-CoV-2 [14]) was “Active” and the Activity (SARS-CoV-2 [15]) was “Active”. The Activity (SARS-CoV-2 [16]) was “Active”, the Activity (SARS-CoV-2 [17]) was “Active” and the Activity (SARS-CoV-2 [18]) was “Active”. For the same molecule, the inhibition at 37.5 µM (SARS-CoV-2 [19]) was greater than 90%, the inhibition at 37.5 µM (SARS-CoV-2 [20]) was greater than 90% and the inhibition at 37.5 µM (SARS-CoV-2 [21]) was greater than 90%. The inhibition at 37.5 µM (SARS-CoV-2 [22]) was greater than 90%, the inhibition at 37.5 µM (SARS-CoV-2 [23]) was greater than 90% and the inhibition at 37.5 µM (SARS-CoV-2 [24]) was greater than 90%.
